Data set [1] concerns motoneurones of isolated newborn rat spinal cord (NMDA type receptor). Briefly: depolarizing activity test, isolated newborn rat spinal cord (potential changes in motoneurones recorded from ventral root). The settings on record: for minimal effective concentration: read-out: Minimum effective concentration; for activity in the presence of 2-APV or Mg++: measured in the presence of 2APV or Mg++; for Minimum effective concentration, relative activity: relative to L-Glu = 1; for type of activity: spinal cord of a rat; for depolarizing activity, times as potent as L-glutamic acid: rat spinal cord, relative to L-glutamic acid. How it is done:
The methods used for the electrophysiological experiment in the isolated newborn rat spiral cord were essentially similar to those described by Ohtsuka et al. (Nature, 252, 733-734, 1974). The potential changes generated in the motoneurones induced by L-glutamate analogues, namely, (2R,3S,4S)-α-(carboxycyclopropyl)glycine (1) of this invention and one of the stereoisomers, (2S,3R,4S)-α-(carboxycyclopropyl)-glycine (2) were recorded extracellularly from the ventral root with a suction electrode.

The test system is the same in data set [2]. The settings on record: newborn rat spinal cord preparation; from Japanese Patent Application No. 129626/88; cited from earlier work.
For data set [3] the following is noted: Fowden et al., Phytochemistry, 8, 437, 1969; cited from earlier work.
Where [4] appears, read: isolated newborn rat spinal cord, depolarization recorded extracellularly from ventral root.

Where two headings read alike, the source gives them in different places.

In the case of `N[C@H](C(=O)O)[C@@H]1C[C@@H]1C(=O)O` [(2), (2S,3R,4S)-α-(carboxycyclopropyl)glycine], the minimal effective concentration in data set [1] (setting [4]) came to 1 µM. Further, in data set [1], the “activity in the presence of 2-APV or Mg++” value was “activity disappeared”; the “Minimum effective concentration, relative activity” value is listed as 100; the type of activity entry is recorded as “potent NMDA-type depolarization”. In addition, the “depolarizing activity, times more potent than L-glutamate” value in data set [2] is given as “about 100 times”.
Consider `N[C@@H](C(=O)O)[C@H]1C[C@@H]1C(=O)O` [Compound (1), (2R,3S,4S)-α-(carboxycyclopropyl)glycine], for which the minimal effective concentration in data set [1] (setting [4]) stood at 0.3 µM. Besides, in data set [1], the “activity in the presence of 2-APV or Mg++” value was “activity disappears”; the “depolarizing activity, times as potent as L-glutamic acid” value is recorded as 300 times; the “Minimum effective concentration, relative activity” value stood at 300; the type of activity entry was “N-methyl-D-aspartic acid (NMDA) like activity”. Besides, the “depolarizing activity, times as potent as L-glutamic acid” value in data set [1] (listed as (2R,3S,4S)-α-(carboxycyclopropyl)glycine) was “more than 300 times”. For the same molecule, in data set [1] (relative to NMDA), the “depolarizing activity compared with NMDA” value is on record as “much more potent than NMDA”. In addition, the “depolarizing activity, times as potent as compound (2)” value in data set [1] (relative to compound (2)) came out at 3 times.
Take `N[C@H](C(=O)O)[C@H]1C[C@@H]1C(=O)O` [(2S,3S,4S)-α-(carboxycyclopropyl)glycine]: the effects caused result in data set [3] is “hypoglycemia and amesis”.
Consider `N[C@@H](CCC(=O)O)C(=O)O` [L-Glu, L-glutamic acid], for which the minimal effective concentration in data set [1] (Rattus norvegicus) worked out at 100 µM. The “Minimum effective concentration, relative activity” value in data set [1] amounted to 1.
Turning to `N[C@H](C(=O)O)[C@H]1C[C@H]1C(=O)O` [(2S,3S,4R)-α-(carboxycyclopropyl)glycine], the effects caused result in data set [3] is “hypoglycemia and amesis”.

These data come from patent US5068412A, “(2R,3S,4S)-α-(carboxycyclopropyl)glycine” (Suntory Limited, priority 1988, dated 1991).
